Experiment [1] relates to Liver microsomes. Nature of the experiment: Antioxidant activity in rat liver microsomes assessed as inhibition of ethoxyresorufin O-deethylase activity at 1000 uM. It counts as functional. The conditions noted are these: Microsome. Background: Liver microsomes are vesicles of endoplasmic reticulum, rich in cytochrome P450 enzymes.
The subject of experiment [2] is Liver microsomes. Nature of the experiment: Antioxidant activity in albino Wistar rat liver microsomes assessed as inhibition of NADPH-dependent lipid peroxidation at 1000 uM. It counts as functional. The conditions noted are these: Microsome.
Experiment [3] has as its system Radical scavenging activity. Nature of the experiment: Antioxidant activity assessed as DPPH free radical scavenging activity after 30 mins. The format is functional. On the technique in general: Loss of DPPH colour is used to gauge radical scavenging.
Experiment [4] in a line: Antioxidant activity assessed as inhibition of superoxide radical anion formation at 0.1 mM. It counts as functional.
In experiment [5] the test system is Liver microsomes. Nature of the experiment: Antioxidant activity in rat liver microsomes assessed as inhibition of ethoxyresorufin O-deethylase activity. It counts as functional, Microsome.

pIC50: −log10 of the molar value. The source made the active and inactive calls. The calls are words filed in the database; no cut-off is given here.

Here are results for 17 molecules from ChEMBL document CHEMBL1144752, “Synthesis and antioxidant properties of novel N-methyl-1,3,4-thiadiazol-2-amine and 4-methyl-2H-1,2,4-triazole-3(4H)-thione derivatives of benzimidazole class” (Bioorg Med Chem, 2008).

As a reminder, the pIC50 is the negative decadic logarithm of the IC50, by convention in mol/L. A word on the inhibition: it is the relative decrease from the control value, in per cent. As for `COc1ccc(-c2nc3ccccc3n2Cc2n[nH]c(=S)n2C)cc1`, the Activity in the experiment with Liver microsomes [1] came to 15.8 pmol/mg/min; in the experiment with Liver microsomes [2], 23.1 nmol/mg/min. For the same molecule, the pIC50 in experiment [3] is 3.85. Besides, the inhibition in experiment [4] amounted to 5%.
Turning to `CNc1nnc(Cn2c(-c3ccc(Cl)cc3)nc3ccccc32)s1`, the Activity worked out at 2.46 pmol/mg/min in the experiment with Liver microsomes [1] and 16.1 nmol/mg/min in the experiment with Liver microsomes [2]. In experiment [4], the inhibition turned out to be 21%.
With `Cn1c(Cn2c(-c3ccc(OCc4ccccc4)cc3)nc3ccccc32)n[nH]c1=S`, the Activity with Liver microsomes [1] turned out to be 18 pmol/mg/min; in the experiment with Liver microsomes [2], 69.6 nmol/mg/min. Further, the pIC50 in experiment [3] is 3.22. The inhibition in experiment [4] came out at 5%.
Consider `CNC(=S)NNC(=O)Cn1c(-c2ccc(OC)cc2)nc2ccccc21`, for which the Activity with Liver microsomes [1] came out at 34.5 pmol/mg/min; in the experiment on Liver microsomes [2] it was 16.1 nmol/mg/min. For the same molecule, in experiment [3], the pIC50 is 4.37. For the same molecule, the outcome in experiment [4] was inactive.
`COc1ccc(NC(=S)NNC(=O)Cn2c(-c3ccncc3)nc3ccccc32)cc1`: in experiment [3], the pIC50 is 4.92.
Consider `CNC(=S)NNC(=O)Cn1c(-c2ccc(OCc3ccccc3)cc2)nc2ccccc21`, for which the figures for the Activity in the experiment on Liver microsomes [1] and in the experiment on Liver microsomes [2] were 28.6 pmol/mg/min and 96.6 nmol/mg/min, respectively. Besides, in experiment [3], the pIC50 was 4.13. For the same molecule, the inhibition in experiment [4] came to 5%.
On to `CNC(=S)NNC(=O)Cn1c(-c2ccccc2)nc2ccccc21`, for which the Activity in the experiment with Liver microsomes [1] stood at 51 pmol/mg/min; with Liver microsomes [2], 19.2 nmol/mg/min. The pIC50 in experiment [3] was 4.59. Also, in experiment [4], the inhibition was found to be 22%.
Take `O=C(Cn1c(-c2ccncc2)nc2ccccc21)NNC(=S)Nc1ccccc1`: the pIC50 in experiment [3] was 4.89.
Regarding `CNC(=S)NNC(=O)Cn1c(-c2ccc(Cl)cc2)nc2ccccc21`, the Activity in the experiment on Liver microsomes [1] is 28.3 pmol/mg/min; with Liver microsomes [2], 13.1 nmol/mg/min. Moreover, the inhibition came to 20% in the experiment with Liver microsomes [2] and 38% in experiment [4]. In addition, the pIC50 in experiment [3] is 4.52.
For the molecule `CNC(=S)NNC(=O)Cn1c(-c2ccc(OC)c(OC)c2)nc2cc(Cl)c(Cl)cc21`, the Activity with Liver microsomes [1] stood at 12.3 pmol/mg/min; in the experiment on Liver microsomes [2], 14.8 nmol/mg/min. For the same molecule, the values for the inhibition (in the experiment on Liver microsomes [1]; in experiment [4]) were 70% and 26%, respectively. For the same molecule, the pIC50 is 4.26 in experiment [3] and 3.08 in the experiment with Liver microsomes [5].
Consider `Cn1c(=O)c2c(ncn2C)n(C)c1=O` [CAFFEINE], for which, in the experiment on Liver microsomes [1], the Activity is 8.31 pmol/mg/min and the inhibition turned out to be 80%. The pIC50 with Liver microsomes [5] is 3.28.
For `Cc1cc(C(C)(C)C)c(O)c(C(C)(C)C)c1` [BUTYLATED HYDROXYTOLUENE], the Activity in the experiment on Liver microsomes [2] was determined as 5.68 nmol/mg/min. The pIC50 in experiment [3] is 4.27.
In the case of `CNc1nnc(Cn2c(-c3ccc(OC)c(OC)c3)nc3cc(Cl)c(Cl)cc32)s1`, the Activity came out at 12.2 pmol/mg/min in the experiment on Liver microsomes [1] and 11.8 nmol/mg/min in the experiment on Liver microsomes [2]. The inhibition is 66% with Liver microsomes [1], 28% in the experiment with Liver microsomes [2] and 31% in experiment [4]. In experiment [3], the pIC50 was < 3.00.
In the case of `CNc1nnc(Cn2c(-c3ccc(OC)cc3)nc3ccccc32)s1`, the Activity was 34.3 pmol/mg/min with Liver microsomes [1] and 14.4 nmol/mg/min with Liver microsomes [2]. Moreover, the inhibition in the experiment with Liver microsomes [2] amounted to 11%; in experiment [4], 5%. Further, in experiment [3], the pIC50 is < 3.00.
With `Cn1c(Cn2c(-c3ccc(Cl)cc3)nc3ccccc32)n[nH]c1=S`, the Activity in the experiment on Liver microsomes [1] was found to be 7.89 pmol/mg/min; in the experiment with Liver microsomes [2], 26.6 nmol/mg/min. In addition, the inhibition in the experiment on Liver microsomes [1] worked out at 81%. Also, the values for the pIC50 (in experiment [3]; with Liver microsomes [5]) were 3.34 and 3.35, respectively. In experiment [4], the result was inactive.
As for `COc1ccc(-c2nc3cc(Cl)c(Cl)cc3n2Cc2n[nH]c(=S)n2C)cc1OC`, the values for the Activity in the experiment with Liver microsomes [1] and in the experiment on Liver microsomes [2] were 18.3 pmol/mg/min and 27.5 nmol/mg/min, respectively. Also, the pIC50 in experiment [3] was 3.57. Also, in experiment [4], the outcome was inactive.
Consider `CNc1nnc(Cn2c(-c3ccc(O)cc3)nc3ccccc32)s1`, for which the Activity in the experiment on Liver microsomes [1] was 36.1 pmol/mg/min; in the experiment with Liver microsomes [2], 129 nmol/mg/min. Further, in experiment [3], the pIC50 is < 3.00. For the same molecule, the inhibition in experiment [4] came out at 5%.
